One test deals with 786-O-Hif-Luc cells (luciferase gene driven by multiple HIF responsive elements). Nature of the test: Luciferase Assay. It is filed as cell-based. As to conditions: 24 h, 786-O-Hif-Luc cells, about 24 hours; read-out: Mean Luciferease EC50. The procedure: A pool of infected cells were then selected against 2 μg/mL of puromycin (P8833, Sigma) for 10 days followed by limited dilution to select single clones.
Each concentration was tested in triplicate. After about 24 hours, luciferase activity was determined using ONE-Glo Luciferase Assay Reagent (E6110, Promega) following the manufacturer's recommended procedure. EC50 were calculated by using Dotmatics software.
Turning to `CS(=O)(=NC#N)c1ccc(Oc2cc(F)cc(F)c2)c2c1C(O)C(F)(F)C2` (stereo not shown) [Compound 191, N-((7-(3,5-difluorophenoxy)-2,2-difluoro-3-hydroxy-2,3-dihydro-1H-inden-4-yl)(methyl)(oxo)-λ^6-sulfanylidene)cyanamide], the EC50 (commonly the concentration that produces a half-maximal response) worked out at 53 nM.
In the case of `N#Cc1cncc(Oc2ccc(S(=O)(=O)C(F)(F)F)c3c2C[C@@H](F)[C@H]3O)c1` [Compound 225, 5-(((1S,2R)-2-Fluoro-1-hydroxy-7-((trifluoromethyl)sulfonyl)-2,3-dihydro-1H-inden-4-yl)oxy)nicotinonitrile], the EC50 was determined as 25 nM.
In the case of `CS(=O)(=O)c1ccc(Oc2cc(F)cc(Br)c2)c2c1[C@H](O)C(F)(F)C2` [Compound 304, (S)-4-(3-bromo-5-fluorophenoxy)-2,2-difluoro-7-(methylsulfonyl)-2,3-dihydro-1H-inden-1-ol], the EC50 stood at 22 nM.
Regarding `N#Cc1cc(F)cc(Oc2ccc(S(=O)(=O)C(F)F)c(CO)c2Br)c1` [Compound 80, 3-(2-Bromo-4-((difluoromethyl)sulfonyl)-3-(hydroxymethyl)phenoxy)-5-fluorobenzonitrile], the concentration for a half-maximal effect (EC50) turned out to be 310 nM.
`O=S(=O)(c1ccc(Oc2cncc(F)c2)c2c1[C@H](O)C(F)(F)C2)C(F)(F)F` [Compound 309, (S)-2,2-difluoro-4-((5-fluoropyridin-3-yl)oxy)-7-((trifluoromethyl)sulfonyl)-2,3-dihydro-1H-inden-1-ol]: the EC50 worked out at 9 nM.
For `O=S(=O)(CF)c1ccc(Oc2cc(F)cc(F)c2)c2c1[C@H](O)CC2` [Compound 60, (R)-4-(3,5-Difluorophenoxy)-7-((fluoromethyl)sulfonyl)-2,3-dihydro-1H-inden-1-ol], the EC50 came to 66 nM.

The test is the same for the next values; noted with them: 24 h, read-out: Mean Luciferease EC50.
With `O=S(=O)(c1ccc(Oc2cc(F)cc(Cl)c2)c(Cl)c1CO)C(F)F` [Compound 41, (2-Chloro-3-(3-chloro-5-fluorophenoxy)-6-((difluoromethyl)sulfonyl)phenyl)methanol], the EC50 was 400 nM.

In the next test the test system is VEGFA concentration in medium of 786-O cells. In words: VEGF ELISA Assay. It counts as cell-based. As to conditions: Homo sapiens, 786-0, 786-O cells; read-out: Mean VEGF ELISA EC50. The procedure: Each concentration had duplicated wells. About 20 hours later, medium was removed by suction and each well was supplied with 180 μL of growth medium. About 20 μl freshly-made 10× compound stocks were added to each well. […] The EC50 was calculated by GraphPad Prism using the dose-response-inhibition (four parameter) equation. The cell seeded plate was then subjected to CellTiter-Glo luminescence cell viability assay (Promega) by adding 50 μL of Celltiter Glo reagent into each well and shaking the plate for 8 minutes at 550 rpm (Thermomixer R, Eppendorf) then read luminescence signal in plate reader (3 second delay, 0.5 second/well integration time, Synergy 2 multi Detection Microplate reader) immediately.
Regarding `CS(=O)(=NC#N)c1ccc(Oc2cc(F)cc(F)c2)c2c1C(O)C(F)(F)C2` (stereo not shown) [Compound 191, N-((7-(3,5-difluorophenoxy)-2,2-difluoro-3-hydroxy-2,3-dihydro-1H-inden-4-yl)(methyl)(oxo)-λ^6-sulfanylidene)cyanamide], the EC50 is 130 nM.
With `N#Cc1cncc(Oc2ccc(S(=O)(=O)C(F)(F)F)c3c2C[C@@H](F)[C@H]3O)c1` [Compound 225, 5-(((1S,2R)-2-Fluoro-1-hydroxy-7-((trifluoromethyl)sulfonyl)-2,3-dihydro-1H-inden-4-yl)oxy)nicotinonitrile], the EC50 was 69 nM.
Take `CS(=O)(=O)c1ccc(Oc2cc(F)cc(Br)c2)c2c1[C@H](O)C(F)(F)C2` [Compound 304, (S)-4-(3-bromo-5-fluorophenoxy)-2,2-difluoro-7-(methylsulfonyl)-2,3-dihydro-1H-inden-1-ol]: the EC50 turned out to be 62 nM.
On to `N#Cc1cc(F)cc(Oc2ccc(S(=O)(=O)C(F)F)c(CO)c2Br)c1` [Compound 80, 3-(2-Bromo-4-((difluoromethyl)sulfonyl)-3-(hydroxymethyl)phenoxy)-5-fluorobenzonitrile], for which the EC50 came to 630 nM.
The same measure, in the same setting: the figure for `O=S(=O)(c1ccc(Oc2cncc(F)c2)c2c1[C@H](O)C(F)(F)C2)C(F)(F)F` [Compound 309, (S)-2,2-difluoro-4-((5-fluoropyridin-3-yl)oxy)-7-((trifluoromethyl)sulfonyl)-2,3-dihydro-1H-inden-1-ol] is 26 nM.
As for `O=S(=O)(CF)c1ccc(Oc2cc(F)cc(F)c2)c2c1[C@H](O)CC2` [Compound 60, (R)-4-(3,5-Difluorophenoxy)-7-((fluoromethyl)sulfonyl)-2,3-dihydro-1H-inden-1-ol], the EC50 came out at 40 nM.
For `CS(=O)(=NC#N)c1ccc(Oc2cc(F)cc(C#N)c2)c2c1[C@H](O)C(F)(F)C2` (stereo partly shown) [Compound 240], the EC50 came to 81 nM.
The same measure, in the same setting: in the case of `O=S(=O)(c1ccc(Oc2cc(F)cc(Cl)c2)c(Br)c1CO)C(F)(F)F` [Compound 102, (2-Bromo-3-(3-chloro-5-fluorophenoxy)-6-((trifluoromethyl)sulfonyl)phenyl)methanol] it was 640 nM.
Turning to `N#Cc1cc(S(=O)(=O)C(F)F)ccc1Oc1cc(F)cc(Cl)c1` [Compound 133, 2-(3-Chloro-5-fluorophenoxy)-5-((difluoromethyl)sulfonyl)benzonitrile], the EC50 amounted to 1870 nM.
On to `O=S(=O)(c1ccc(Oc2cc(F)cc(Cl)c2)c(Br)c1Cl)C(F)(F)F` [Compound 179, 2-Bromo-3-chloro-1-(3-chloro-5-fluorophenoxy)-4-((trifluoromethyl)sulfonyl)benzene], for which the EC50 was 1600 nM.

The test is the same for the next values; noted with them: Homo sapiens, 786-0, read-out: Mean VEGF ELISA EC50.
Consider `O=S(=O)(c1ccc(Oc2cc(F)cc(Cl)c2)c(Cl)c1CO)C(F)F` [Compound 41, (2-Chloro-3-(3-chloro-5-fluorophenoxy)-6-((difluoromethyl)sulfonyl)phenyl)methanol], for which the concentration giving a half-maximal response (EC50) came out at 570 nM.
Turning to `N#Cc1ccc(Oc2cc(F)cc(F)c2)c2c1[C@H](O)C(F)(F)C2` [Compound 67, (S)-7-(3,5-Difluorophenoxy)-2,2-difluoro-3-hydroxy-2,3-dihydro-1H-indene-4-carbonitrile], the EC50 turned out to be 220 nM.
`O=S(=O)(c1ccc(Oc2cc(F)cc(Cl)c2)c2c1[C@H](O)CC2)C(F)F` [Compound 1, (R)-4-(3-chloro-5-fluorophenoxy)-7-((difluoromethyl)sulfonyl)-2,3-dihydro-1H-inden-1-ol]: the EC50 was found to be 250 nM.
On to `O=S(=O)(c1ccc(Oc2cc(F)cc(Cl)c2)c2c1C(O)CC2)C(F)F` (stereo not shown) [Compound 17, 4-(3-chloro-5-fluorophenoxy)-7-((difluoromethyl)sulfonyl)-2,3-dihydro-1H-inden-1-ol], for which the EC50 is 160 nM.

A further test concerns HIF-2α HIS TAG-PASB Domain. Nature of the test: HIF-2α Scintillation Proximity Assay (SPA). It counts as binding. As to conditions: compounds listed by structure and IUPAC name. Here is the method:
The percent inhibition was determined and IC50 values were calculated using the Dotmatics system based on the following equation: % inhibition=[(high control sample)/(high control low control)]×100.
Turning to `CS(=O)(=O)c1cccc(Oc2ccc(S(=O)(=O)C(F)(F)F)c3c2CC(F)(F)[C@H]3O)c1` [(1S)-2,2-difluoro-4-(3-methylsulfonylphenoxy)-7-(trifluoromethylsulfonyl)indan-1-ol], the IC50 (in general, the concentration at which inhibition is half-maximal) was greater than 100000 nM.
With `N=S(=O)(c1ccc(Cl)c(Br)c1Oc1cc(F)cc(Cl)c1)C(F)(F)F` (stereo not shown) [[3-bromo-4-chloro-2-(3-chloro-5-fluoro-phenoxy)phenyl]-imino-oxo-(trifluoromethyl)-λ^6-sulfane], the concentration for half-maximal inhibition (IC50) was greater than 100000 nM.
In turn, `O=C1CCc2c(Oc3cc(F)cc(Cl)c3)cccc21` [4-(3-chloro-5-fluoro-phenoxy)indan-1-one] had a half-maximal inhibitory concentration (IC50) greater than 100000 nM.
Same read-out and setting: in the case of `O=S(=O)(c1ccc(Oc2cc(F)cc(Cl)c2)c(Cl)c1CNC1CCOC1)C(F)F` (stereo not shown) [N-[[2-chloro-3-(3-chloro-5-fluoro-phenoxy)-6-(difluoromethylsulfonyl)phenyl]methyl]tetra-hydrofuran-3-amine] it was greater than 100000 nM; in that of `O=S(=O)(c1ccc(Oc2cccn3cnnc23)c2c1[C@H](O)CC2)C(F)(F)F` [(1R)-4-([1,2,4]triazolo[4,3-a]pyridin-8-yloxy)-7-(trifluoromethylsulfonyl)indan-1-ol], greater than 100000 nM.
`N#Cc1cccc(Oc2ccc(C(F)(F)F)c(Cl)c2N)c1` [3-[2-amino-3-chloro-4-(trifluoromethyl)phenoxy]benzonitrile] yielded an IC50 greater than 100000 nM.
On the same count and under the same terms, the figure for `O=S(=O)(c1ccc(Oc2cc(F)cc(F)c2)c2c1C(O)CC2)N1CCOCC1` (stereo not shown) [4-(3,5-difluorophenoxy)-7-morpholinosulfonyl-indan-1-ol] is greater than 100000 nM; for `Cc1c(Oc2cc(F)cc(C#N)c2)ccc(S(=O)(=O)C(F)(F)F)c1/C=C/C(N)=O` [(E)-3-[3-(3-cyano-5-fluoro-phenoxy)-2-methyl-6-(trifluoromethylsulfonyl)phenyl]prop-2-enamide] it is greater than 100000 nM; for `OC1CCc2c(Oc3cc(F)cc(Cl)c3)cccc21` (stereo not shown) [4-(3-chloro-5-fluoro-phenoxy)indan-1-ol] it is greater than 100000 nM.
Turning to `N#Cc1cccc(Oc2ccc(S(=O)(=O)C(F)F)c3cccnc23)c1` [3-[[5-(difluoromethylsulfonyl)-8-quinolyl]oxy]benzonitrile], the 50% inhibitory concentration (IC50) was greater than 100000 nM.
On the same count and under the same terms, the figure for `O=S(=O)(c1ccc(Oc2cc(F)cc(Cl)c2)c(CC(O)CO)c1)C(F)(F)F` (stereo not shown) [3-[2-(3-chloro-5-fluoro-phenoxy)-5-(trifluoromethylsulfonyl)phenyl]propane-1,2-diol] is greater than 100000 nM; for `CNc1c(S(=O)(=O)C(F)(F)F)ccc(Oc2cc(F)cc(Cl)c2)c1C#N` [6-(3-chloro-5-fluoro-phenoxy)-2-(methylamino)-3-(trifluoromethylsulfonyl)benzonitrile] it is greater than 100000 nM; for `CC(=O)c1ccc(Oc2cc(F)cc(Cl)c2)c(Br)c1C#N` [6-acetyl-2-bromo-3-(3-chloro-5-fluoro-phenoxy)benzonitrile] it is greater than 100000 nM.
For the compound `O=[N+]([O-])c1c(F)cccc1Oc1cccc(Cl)c1` [1-(3-chlorophenoxy)-3-fluoro-2-nitro-benzene], the IC50 was greater than 100000 nM.
Still for that read-out and setting: the figure for `COC(=O)c1cc(F)cc(Oc2ccc(S(=O)(=O)C(F)(F)F)cc2Br)c1` [methyl 3-[2-bromo-4-(trifluoromethylsulfonyl)phenoxy]-5-fluoro-benzoate] is greater than 100000 nM; for `O=S(=O)(c1ccc(Oc2cc(F)cc(Cl)c2)c(Cl)c1CNCC1CCOC1)C(F)F` (stereo not shown) [1-[2-chloro-3-(3-chloro-5-fluoro-phenoxy)-6-(difluoromethylsulfonyl)phenyl]-N-(tetrahydrofuran-3-ylmethyl)methanamine] it is greater than 100000 nM; for `CC(=O)NC1c2c(S(C)(=O)=O)ccc(Oc3cc(F)cc(F)c3)c2CC1(F)F` (stereo not shown) [N-[4-(3,5-difluorophenoxy)-2,2-difluoro-7-methylsulfonyl-indan-1-yl]acetamide] it is greater than 100000 nM.
The compound `CC1Cc2c(Oc3cc(F)cc(C#N)c3)ccc(S(C)(=O)=O)c2C1=O` (stereo not shown) [3-fluoro-5-((2-methyl-7-(methylsulfonyl)-1-oxo-2,3-dihydro-1H-inden-4-yl)oxy)benzonitrile] displayed an IC50 greater than 100000 nM.
In turn, `NC(=O)c1cc(F)cc(Oc2ccc(S(=O)(=O)C(F)(F)F)cc2Br)c1` [3-[2-bromo-4-(trifluoromethylsulfonyl)phenoxy]-5-fluoro-benzamide] had an IC50 greater than 100000 nM.
With `Cc1cc(S(C)(=O)=O)c2c(c1Oc1cc(F)cc(C#N)c1)CCC2O` (stereo not shown) [3-fluoro-5-(1-hydroxy-5-methyl-7-methylsulfonyl-indan-4-yl)oxy-benzonitrile], the IC50 is greater than 100000 nM.
The compound `CNC(=O)/C=C/c1c(S(=O)(=O)C(F)(F)F)ccc(Oc2cc(F)cc(C#N)c2)c1C` [(E)-3-[3-(3-cyano-5-fluoro-phenoxy)-2-methyl-6-(trifluoromethylsulfonyl)phenyl]-N-methyl-prop-2-enamide] came in with an IC50 greater than 100000 nM.
Take `CSc1ccc(Oc2cc(F)cc(C#N)c2)c2c1C(=O)CC2` [3-fluoro-5-(7-methylsulfanyl-1-oxo-indan-4-yl)oxy-benzonitrile]: the half-maximal inhibitory concentration (IC50) was greater than 100000 nM.

The record behind these values is patent US10597366B2, “Aryl ethers and uses thereof” (Peloton Therapeutics, Inc., priority 2013, dated 2020).
